# Entries after “also recorded” stand apart in the source; their conditions may differ. Like-named read-outs stand apart in the source and are kept apart here.
# Experiments:
# S. epidermidis (12228) = experiment: MIC, micro-broth dilution; type: cell-based; conditions: Staphylococcus epidermidis, 35° C., 24 hours, read-out: ANTIMICROBIAL ACTIVITY (MIC)
# Method: (§1) The antimicrobial activity of the compounds according to the present invention were compared with the results obtained for squalamine as reported in Proc. Nat. Acad. Sci. USA 90:1354 (1993), supra, the disclosure of which is incorporated in toto herein. The data reported in the following table is the minimum inhibitory concentration (MIC) required for complete inhibition of microbial growth. The MIC was determined utilizing known micro-broth dilution methods in which inocula of 10^6 /ml of the test organism were incubated in 0.5× trypticase soy broth at 35° C. for 24 hours. MIC's were also tested under various pH conditions, with calcium chloride or magnesium chloride, or with immobilized horse serum.
# (§2) The numbers in parentheses contained in the table correspond to accession numbers with the American Type Culture Collection (reference strains were either obtained from the American Type Culture Collection or from the Microbiology Laboratory at Memorial Sloan-Kettering Cancer Center; Bacterial strains were maintained on Columbia 5% sheep blood agar plates, and fungi were maintained on Sabouraud Dextrose agar plates).
# S. marcescens (13880) = experiment: MIC, micro-broth dilution; type: cell-based; conditions: for MIC: Serratia marcescens, 24 h, read-out: ANTIMICROBIAL ACTIVITY (MIC); for activity against S. marcescens: in words
# Method: as §1, §2
# S. aureus (25923) = experiment: MIC, micro-broth dilution; type: cell-based; conditions: Staphylococcus aureus, 35° C., 24 hours, read-out: ANTIMICROBIAL ACTIVITY (MIC)
# Method: as §1, §2
# S. aureus (H20809) = experiment: MIC, micro-broth dilution; type: cell-based; conditions: Staphylococcus aureus, read-out: ANTIMICROBIAL ACTIVITY (MIC)
# Method: as §1, §2
# P. vulgaris (13315) = experiment: MIC, micro-broth dilution; type: cell-based; conditions: Proteus vulgaris, 35° C., 24 hours, read-out: ANTIMICROBIAL ACTIVITY (MIC)
# Method: as §1, §2
# S. pyrogenes (19615) = experiment: MIC, micro-broth dilution; type: cell-based; conditions: 24 h, read-out: ANTIMICROBIAL ACTIVITY (MIC)
# Method: as §1, §2
# C. neoformans (M68979) = experiment: MIC, micro-broth dilution; type: cell-based; conditions: Cryptococcus neoformans, 24 h, read-out: ANTIMICROBIAL ACTIVITY (MIC)
# Method: as §1, §2
# C. neoformans (90012) = experiment: MIC, micro-broth dilution; type: cell-based; conditions: Cryptococcus neoformans, 24 h, read-out: ANTIMICROBIAL ACTIVITY (MIC)
# Method: as §1, §2
# K. pneumoniae (13883) = experiment: MIC, micro-broth dilution; type: cell-based; conditions: Klebsiella pneumoniae, 24 h, read-out: ANTIMICROBIAL ACTIVITY (MIC)
# Method: as §1, §2
# S. aureus (29213) = experiment: MIC, micro-broth dilution; type: cell-based; conditions: Staphylococcus aureus, 24 h, read-out: ANTIMICROBIAL ACTIVITY (MIC)
# Method: as §1, §2
# E. cloacae (13047) = experiment: MIC, micro-broth dilution; type: cell-based; conditions: Enterobacter cloacae, 35° C., 24 hours, read-out: ANTIMICROBIAL ACTIVITY (MIC)
# Method: as §1, §2
# E. faecalis (29212) = experiment: MIC, micro-broth dilution; type: cell-based; conditions: Enterococcus faecalis, 35° C., 24 hours, read-out: ANTIMICROBIAL ACTIVITY (MIC)
# Method: as §1, §2
# E. coli (25922) = experiment: MIC, micro-broth dilution; type: cell-based; conditions: Escherichia coli, 35° C., 24 hours, read-out: ANTIMICROBIAL ACTIVITY (MIC)
# Method: as §1, §2
# C. albicans (90028) = experiment: MIC, micro-broth dilution; type: cell-based; conditions: Candida albicans, 35° C., 24 hours, read-out: ANTIMICROBIAL ACTIVITY (MIC)
# Method: as §1, §2
# E. faecium (T6480-9) = experiment: MIC, micro-broth dilution; type: cell-based; conditions: Enterococcus faecium, 35° C., 24 hours, read-out: ANTIMICROBIAL ACTIVITY (MIC)
# Method: as §1, §2
# A. fumigatus (H1120) = experiment: MIC, micro-broth dilution; type: cell-based; conditions: Aspergillus fumigatus, 35° C., 24 hours, read-out: ANTIMICROBIAL ACTIVITY (MIC)
# Method: as §1, §2
# S. agalactiae (13813) = experiment: MIC, micro-broth dilution; type: cell-based; conditions: Streptococcus agalactiae, 35° C., 24 hours, read-out: ANTIMICROBIAL ACTIVITY (MIC)
# Method: as §1, §2
# P. aeruginosa (2853) = experiment: MIC, micro-broth dilution; type: cell-based; conditions: Pseudomonas aeruginosa, 24 h, read-out: ANTIMICROBIAL ACTIVITY (MIC)
# Method: as §1, §2
# S. pneumoniae (6305) = experiment: MIC, micro-broth dilution; type: cell-based; conditions: Streptococcus pneumoniae, 35° C., 24 hours, read-out: ANTIMICROBIAL ACTIVITY (MIC)
# Method: as §1, §2
# P. aeruginosa (10145) = experiment: MIC, micro-broth dilution; type: cell-based; conditions: Pseudomonas aeruginosa, 35° C., 24 hours, read-out: ANTIMICROBIAL ACTIVITY (MIC)
# Method: as §1, §2
# A. fumigatus (H29709) = experiment: MIC, micro-broth dilution; type: cell-based; conditions: Aspergillus fumigatus, 35° C., 24 hours, read-out: ANTIMICROBIAL ACTIVITY (MIC)
# Method: as §1, §2
# [1] = Hemolytic activity, minimal hemolytic concentration (MHC); type: cell-based, sheep; conditions: for MCC at 24 h: sheep, red blood cells;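 as to MCC: MCC here is the minimal hemolytic concentration (MHC)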
# Method: Hemolytic activity of the squalamine mimics according to the present invention were also studied by incubating sheep red blood cells for 24 hours at 37° C. in saline (final concentration of 0.5%) with or without respective concentrations of the squalamine mimics. The minimal hemolytic concentration (MHC) was determined as the lowest concentration of a mimic that raised visible hemolysis.
SMILES,MIC (S. epidermidis (12228)) [µg/mL],MIC (S. marcescens (13880)) [µg/mL],MIC (S. aureus (25923)) [µg/mL],MIC (P. vulgaris (13315)) [µg/mL],MIC (S. pyrogenes (19615)) [µg/mL],MIC (C. neoformans (M68979)) [µg/mL],MIC (C. neoformans (90012)) [µg/mL],MIC (K. pneumoniae (13883)) [µg/mL],MIC (S. aureus (29213)) [µg/mL],MIC (E. cloacae (13047)) [µg/mL],MIC (E. faecalis (29212)) [µg/mL],MIC (E. coli (25922)) [µg/mL],MIC (C. albicans (90028)) [µg/mL],MIC (E. faecium (T6480-9)) [µg/mL],MIC (A. fumigatus (H1120)) [µg/mL],MIC (S. agalactiae (13813)) [µg/mL],MIC (P. aeruginosa (2853)) [µg/mL],MIC (S. pneumoniae (6305)) [µg/mL],MIC (P. aeruginosa (10145)) [µg/mL],MIC (A. fumigatus (H29709)) [µg/mL],other results
C[C@H](CCC(=O)NCCNCCNCCN)[C@H]1CC[C@H]2[C@@H]3CC[C@@H]4C[C@H](O)CC[C@]4(C)[C@H]3C[C@H](O)[C@]12C [SM-11],6.25,50,6.25,25,6.25,6.25,6.25,12.5,12.5,12.5,12.5,12.5,12.5,12.5,12.5,6.25,6.25,12.5,6.25,12.5,activity against S. marcescens (S. marcescens (13880)): found even against S. marcescens; also recorded: effective against S. marcescens; MIC (S. aureus (H20809); 24 h): 12.5 µg/mL; MCC at 24 h [1]: 25 µg/mL
C[C@H](CCC(=O)NCCNCCNCCN)[C@H]1CC[C@H]2[C@@H]3CC[C@@H]4C[C@H](O)CC[C@]4(C)[C@H]3CC[C@]12C [SM-27],3.13,12.5,6.25,12.5,1.56,3.13,3.13,6.25,6.25,25,12.5,3.13,25,12.5,100,3.13,12.5,3.13,25,100,activity against S. marcescens (S. marcescens (13880)): found even against S. marcescens; also recorded: effective against S. marcescens; MIC (S. aureus (H20809); 24 h): 6.25 µg/mL; MCC at 24 h [1]: 50 µg/mL
C[C@H](CCC(=O)NCCCCN)[C@H]1CC[C@H]2[C@@H]3CC[C@@H]4C[C@H](O)CC[C@]4(C)[C@H]3C[C@H](O)[C@]12C [SM-9],25,> 100,25,50,6.25,25,25,50,25,50,25,50,25,50,50,12.5,100,25,100,50,MIC (S. aureus (H20809); 24 h): 25 µg/mL; MCC at 24 h [1]: 50 µg/mL
C[C@H](CCC(=O)NCCCNCCCCNCCCN)[C@H]1CC[C@H]2[C@@H]3[C@H](OS(=O)(=O)O)C[C@@H]4C[C@H](OS(=O)(=O)O)CC[C@]4(C)[C@H]3CC[C@]12C [SM-35],3.13,> 100,6.25,25,3.13,12.5,12.5,12.5,6.25,12.5,6.25,6.25,25,6.25,25,6.25,12.5,3.13,25,25,"MIC (S. aureus (H20809); S. aureus (H20809), 35° C., 24 hours): 8.25 µg/mL; MCC at 24 h [1]: 6.25 µg/mL"
C[C@H](C(=O)NCCNCCNCCN)[C@H]1CC[C@H]2[C@@H]3CC=C4C[C@@H](O)CC[C@]4(C)[C@H]3CC[C@]12C [SM-5],25,> 100,50,> 100,6.25,> 100,> 100,> 100,100,> 100,> 100,100,> 100,> 100,> 100,> 100,25,> 100,25,> 100,MIC (S. aureus (H20809); 24 h): > 100 µg/mL; MCC at 24 h [1]: > 100 µg/mL
"C[C@H](C(=O)NCCCNCCCCNCCCN)[C@H]1CC[C@H]2[C@@H]3CC=C4C[C@@H](O)CC[C@]4(C)[C@H]3CC[C@]12C [SM-1, 23,24-Bisnor-3β-ol-5-cholenic acid 3-ol spermine conjugate]",1.56,> 100,3.13,25,,6.25,,,6.25,,,12.5,100,,,,1.56,,,,"minimal hemolytic concentration (MHC) at 24 h ([1]; sheep red blood cells, 24 hours at 37° C. in saline): 100 µg/mL"
C[C@H](CCCNCCCCN)[C@H]1CC[C@H]2[C@@H]3CC[C@@H]4C[C@H](O)CC[C@]4(C)[C@H]3C[C@H](O)[C@]12C [SM-9H],1.56,> 100,1.56,12.5,0.78,0.78,0.78,50,1.56,100,6.25,25,3.13,25,12.5,3.13,6.25,6.25,12.5,6.25,MIC (S. aureus (H20809); 24 h): 3.13 µg/mL; MCC at 24 h [1]: 50 µg/mL
C[C@H](CCC(=O)NCCCNCCCCNCCCN)[C@H]1CC[C@H]2[C@@H]3CC[C@@H]4C[C@H](OS(=O)(=O)O)CC[C@]4(C)[C@H]3CC[C@]12C [SM-22],1.56,> 100,1.56,> 100,1.56,25,25,> 100,1.56,> 100,> 100,> 100,> 100,> 100,> 100,> 100,> 100,25,> 100,> 100,MIC (S. aureus (H20809); 24 h): 3.13 µg/mL; MCC at 24 h [1]: > 100 µg/mL
C[C@H](CCC(=O)NCCNCCNCCN)[C@H]1CC[C@H]2[C@@H]3C[C@H](O)[C@@H]4C[C@H](O)CC[C@]4(C)[C@H]3CC[C@]12C [SM-32],25,> 100,25,50,12.5,25,25,50,25,> 100,100,25,25,100,50,25,25,25,50,50,MIC (S. aureus (H20809); 24 h): 25 µg/mL; MCC at 24 h [1]: > 100 µg/mL
